Data: article PMC4605843, “Cell-Penetrating Peptides Selectively Cross the Blood-Brain Barrier In Vivo” (PLoS ONE, 2015)
Several values for one entry are separate records, joined by “and”; a condition that tells them apart may be missing. Equal entries are not always repeated.

What was measured:
[1] = test system: blood-brain barrier (BBB); test: Multiple time regression (MTR) analysis, blood-to-brain influx; type: in vivo, ICR-CD-1 mice; conditions: whole brain, ± 65% confidence limits
Experimental: Shortly, 200 μl of the radioiodinated CPP solution (30000 cpm/μl) was injected into the right jugular externalis vein of anesthetized ICR-CD-1 mice, which were then decapitated at 1, 3, 5, 10, 12.5 and 15 min post injection, with first and last time points performed in duplicate, after which brains were collected and measured for radioactivity using a gamma counter (Wallac Wizard 1470, Perkin Elmer). Shortly before decapitation, blood was collected from the left carotid artery, which was centrifuged (10000 g, 15 min at 21°C) in order to measure the radioactivity of blood and serum. Dermorphin and radioiodinated BSA were used as positive and negative control, respectively. The blood-to-brain entry during the experimental period of 15 min was evaluated by plotting the ratio of brain (Am(T)) and serum activity (Cp(T)), corrected for the brain weight and serum volume, respectively, versus the exposure time (Θ), expressing the theoretical steady state serum level of the iodinated peptide at a given serum concentration [37, 73]. The exposure time is calculated as the integral of the arterial serum radioactivity over time divided by the radioactivity at time t. The integral is calculated through the trapezoidal rule of the log-transformed data [73]. In the linear part of the curve, assuming a two-compartmental BBB model, data can be fitted using a linear model from which the unidirectional influx rate (Kin), also referred to as unidirectional blood to brain clearance K1 [46], and the initial brain distribution volume (Vi) can be determined using the following equation according to Gjedde and Patlak [37–40]: Am(T)/Cp(T)=Abrain(T)/Aserum(T)=Kin⋅Θ+Vi with Θ = ∫0TCp(t) ⋅ dt/Cp(T) (1)

[2] = test system: brain parenchyma and capillaries; test: Capillary depletion method: brain parenchyma/capillary distribution; type: in vivo, ICR-CD-1 mice; conditions: capillary depletion, 10 min after IV injection of radiolabeled peptide (200 μl, 10000 cpm/μl), brain perfused with lactated Ringer's buffer, two ICR-CD-1 mice, gamma counter
Experimental: The capillary depletion method was used to evaluate the distribution of the peptide between the brain parenchyma and capillaries. In summary (see Materials and Methods in [45]), 200 μl of a radiolabeled peptide solution (10000 cpm/μl) was injected in the jugular externalis vein of two anesthetized ICR-CD-1 mice. Ten minutes after IV injection, mice were decapitated and brains were collected and measured for radioactivity. […] The resulting homogenate was weighed and centrifuged at 5400 g for 30 min at 4°C, resulting in a pellet, i.e. capillaries, and supernatant, i.e. parenchyma and fat tissue, which were weighed and measured in the gamma counter. […] Compartmental distribution was calculated as follows: Fractioncapillaries or parenchyma (%)=[…] or parenchyma/[…]×100 (4)

[3] = test system: blood-brain barrier (BBB); test: Brain-to-blood transport (efflux) after intracerebroventricular injection; conditions: ICR-CD-1 mice
Experimental: Female, ICR-CD-1 mice (Harlan Laboratories, Venray, The Netherlands), aged 7 to 10 weeks and weighing 28–36 g, were used during the in vivo BBB transport experiments. All animal experiments were performed in accordance with the Ethical Committee principles of laboratory animal welfare. The protocol was approved by the Ethical Committee of the Faculty of Veterinary Science of Ghent University (Permit Numbers: 2009–052 and 2014–128). Prior to experiments, mice were anesthetized by intraperitoneal injection of a 40% urethane solution (3 g/kg) (Sigma-Aldrich, Diegem, Belgium).
For evaluation of the efflux of the peptides out of the brain, 1 μl of a radioiodinated peptide solution (25000 cpm/μl) was injected in the lateral ventricle of anesthetized ICR-CD-1 mice at a speed of 360 μl/h for 10 s using a syringe pump (KDS100, KR analytical, Cheshire, UK). […] The brain half-time disappearance (t1/2,brain) was calculated from the linear regression of the natural logarithm of the residual radioactivity in brain versus time as follows: t1/2,brain=ln(2)/kout (5) with kout defined as the efflux rate constant calculated as the absolute value of the slope of the linear regression, applying first order kinetics. An extensive description of the protocol can be found elsewhere.

[4] = In vitro metabolic stability in mouse serum; type: in vitro ADME
Experimental: (§1) Prior to use, the protein content of each homogenate was determined using the Pierce Modified Lowry Protein Assay method (Thermo Scientific) to generate a stock solution with a protein concentration of 0.6 mg/ml by dilution with Krebs-Henseleit buffer (pH 7.4, Sigma-Aldrich). […] After sampling, enzymatic activity was terminated by additional heat inactivation at 95°C for 5 min, followed by cooling the samples in an ice bath for 30 min. […] Therefore, a solid phase extraction (SPE) protocol using an Oasis® WCX μelution plate (Waters, Zellik, Belgium) was used prior to HPLC-UV analysis. In the Supporting Information, the protocol of the SPE extraction procedure is described (S1 Text). Blank control solutions were prepared as described above, but without adding the peptide. To confirm chemical stability and mass balance, control reference solutions without tissue homogenate or with a prior heat inactivation were analyzed as well. The HPLC-UV system consisted of a Waters Alliance 2695 separation module and a Waters 2996 photodiode array (PDA) detector (detection from 190-400 nm, quantification at 215 nm), fitted with Empower 2 software for data handling (Waters). […] Appropriate gradients for separation of the peptides and their metabolites were created by mixtures of water (0.1% trifluoroacetic acid m/V) and acetonitrile (0.1% trifluoroacetic acid m/V).

[5] = In vitro metabolic stability in mouse brain homogenate; type: in vitro ADME; conditions: mouse brain homogenate 0.6 mg/ml protein (500 μl, 300 μg protein) + Krebs-Henseleit buffer pH 7.4, 0.1 mg/ml peptide, 37°C, 750 rpm, 0-120 min, HPLC-UV 215 nm
Experimental: as §1

[6] = In vitro metabolic stability in mouse kidney homogenate; type: in vitro ADME; conditions: mouse kidney homogenate 0.6 mg/ml protein (500 μl, 300 μg protein) + Krebs-Henseleit buffer pH 7.4, 0.1 mg/ml peptide, 37°C, 750 rpm, 0-120 min, HPLC-UV 215 nm
Experimental: as §1

[7] = In vitro metabolic stability in mouse liver homogenate; type: in vitro ADME; conditions: mouse liver homogenate 0.6 mg/ml protein (500 μl, 300 μg protein) + Krebs-Henseleit buffer pH 7.4, 0.1 mg/ml peptide, 37°C, 750 rpm, 0-120 min, HPLC-UV 215 nm
Experimental: as §1

[8] = test system: blood-brain barrier (BBB); test: Classification of peptides according to their BBB influx; conditions: classification method of ref [61] applied to the measured influx
From the text: This peptide is derived from the murine vascular endothelial (VE)-cadherin, located in the adherens junctions between the vascular endothelial cells, and constitutes the 13 cytosolic amino acids closest to the membrane and five amino acids from the C-terminus of the transmembrane region (615–632).

cellular uptake = test system: cellular uptake; parameters: method as in Stalmans et al.[1]; conditions: cell-penetrating (CP-) response, quantitative expression of cellular influx; ref Stalmans et al.[1]; cited from earlier work

Substance: AGYLLGKINLKPLAALAKKIL-NH2 [TP10-2, transportan analog differing one amino acid from TP10]
- Kin (unidirectional influx rate), linear Gjedde-Patlak model ([1]; 125I-radioiodinated peptide, IV jugular vein 200 μl (30000 cpm/μl), anesthetized female ICR-CD-1 mice, 1-15 min, brain/serum radioactivity (gamma counter) vs exposure time, pVEC, SynB3, TP10: two experiments fitted together): 0.36 µL/g/min and 0.36 ± 0.06 µL/g/min
- Vi (initial brain distribution volume), linear Gjedde-Patlak model ([1]; 125I-radioiodinated, IV, ICR-CD-1 mice, MTR 1-15 min): 10.07 ± 1.00 µL/g
- Parenchymal fraction [2]: 84%
- kout (efflux transfer constant) ([3]; 1 μl radioiodinated peptide (25000 cpm/μl) in lateral ventricle, 1-15 min, slope of ln(brain activity) vs time): 0.06 ± 0.01 min⁻¹
- t1/2,brain (half-time disappearance) ([3]; ln(2)/kout after intracerebroventricular injection): 0.183 h
- Half-life, serum ([4]; mouse serum 500 μl + 400 μl Krebs-Henseleit buffer pH 7.4 + 100 μl 1 mg/ml peptide, 37°C, 750 rpm, sampling 0-120 min plus early points, HPLC-UV 215 nm, t1/2 = -ln(2)/slope): 3.823 h
- Serum half-life ([4]; mouse serum in Krebs-Henseleit buffer pH 7.4, 37°C, SPE then HPLC-UV): 4 h
- Half-life, brain [5]: 1.705 h
- Half-life, kidney [6]: 0.188 h
- Half-life, liver [7]: 1.97 h
- BBB influx class [8]: class 2
- CP-response (cellular uptake): 0.749
